In patent US20240101544A1, “INHIBITORS OF QPCTL AND QPCT” (priority 2022, published 2024):

Legend:
QPCTL [1] = target: T1, QPCTL (Homo sapiens (Human), UniProt Q9NXS2); test: Inhibition of Cellular QPCTL Activity - Imaging Assay, CC2C6 anti-CD47 staining of DLD-1 cells; format: cell-based; settings: 72 hours, CC2C6 anti-CD47 high-content imaging
Description: Inhibition of Cellular QPCTL Activity—Imaging Assay
The cells were incubated for 72 hours at 37° C. and 5% CO2. […] After primary antibody staining, the cells were fixed with 4% paraformaldehyde in the incubation buffer for 15 minutes at room temperature. […] Cells were analyzed on a ImageXpress Pico Automated Cell Imaging System (Molecular Devices) using 10× objective (3×3 fields).
Target sequence in this assay (Q9NXS2 whole entry): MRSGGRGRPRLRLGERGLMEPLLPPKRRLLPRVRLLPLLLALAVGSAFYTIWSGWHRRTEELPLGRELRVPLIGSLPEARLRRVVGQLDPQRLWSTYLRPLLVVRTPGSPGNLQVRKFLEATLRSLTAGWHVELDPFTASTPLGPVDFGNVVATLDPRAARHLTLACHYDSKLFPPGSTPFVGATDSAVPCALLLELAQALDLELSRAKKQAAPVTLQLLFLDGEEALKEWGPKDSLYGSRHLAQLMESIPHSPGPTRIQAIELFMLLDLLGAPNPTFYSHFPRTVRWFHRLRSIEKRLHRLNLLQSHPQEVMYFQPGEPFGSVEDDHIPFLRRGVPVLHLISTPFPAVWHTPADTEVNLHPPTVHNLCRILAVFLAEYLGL

QPCT (rhQPCT) = QPCT (rhQPCT) (Homo sapiens (Human), UniProt Q16769); test: QPCT Enzymatic Activity Assay (coupled-enzyme fluorescent assay, H-Gln-AMC substrate); format: biochemical; settings: rhQPCT 10-12 nM, 10 μM H-Gln-AMC; read-out: QPCT Inhibition IC50
Sequence of QPCT (rhQPCT) (Q16769 29-361): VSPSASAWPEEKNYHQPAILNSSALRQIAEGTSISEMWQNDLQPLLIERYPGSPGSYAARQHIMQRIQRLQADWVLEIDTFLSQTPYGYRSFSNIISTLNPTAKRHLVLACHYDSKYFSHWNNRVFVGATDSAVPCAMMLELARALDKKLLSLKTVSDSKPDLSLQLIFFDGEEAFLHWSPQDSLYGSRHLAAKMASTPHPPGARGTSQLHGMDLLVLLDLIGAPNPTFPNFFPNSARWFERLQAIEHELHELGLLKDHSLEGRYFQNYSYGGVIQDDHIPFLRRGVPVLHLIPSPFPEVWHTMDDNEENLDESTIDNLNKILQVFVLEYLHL
Procedure, shortened: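 Coupled assay: recombinant human QPCT converts H-Gln-AMC (10 μM final) to pyroglutamyl-AMC, 60 min at 37 °C, stopped by boiling; PGPEP-1 then releases AMC.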

QPCTL [2] = target: T1, QPCTL; test: QPCTL Enzymatic Activity Assay (coupled-enzyme fluorescent assay, H-Gln-AMC substrate); format: biochemical; settings: recombinant truncated human QPCTL 10-12 nM, 10 μM H-Gln-AMC; read-out: QPCTL Inhibition IC50
Target sequence in this assay (Q9NXS2 53-382): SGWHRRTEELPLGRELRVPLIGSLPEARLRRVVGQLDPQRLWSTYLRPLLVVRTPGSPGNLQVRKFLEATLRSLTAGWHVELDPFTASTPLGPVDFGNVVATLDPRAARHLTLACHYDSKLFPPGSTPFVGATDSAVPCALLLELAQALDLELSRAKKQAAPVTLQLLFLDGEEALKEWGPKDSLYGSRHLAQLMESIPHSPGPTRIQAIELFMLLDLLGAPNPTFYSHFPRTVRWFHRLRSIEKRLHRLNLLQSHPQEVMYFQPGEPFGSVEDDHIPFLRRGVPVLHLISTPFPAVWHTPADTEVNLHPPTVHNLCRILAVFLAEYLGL

| IC50 (QPCTL [1]) | IC50 (QPCT (rhQPCT)) | IC50 (QPCTL [2]) | Structure (SMILES) |
| --- | --- | --- | --- |
| < 100 nM | < 100 nM | < 100 nM | Cc1ccc(-c2ccc(F)nc2)c(N2CCC(c3nncn3C)CC2)c1C#N [Example 67, 3-(6-fluoropyridin-3-yl)-6-methyl-2-(4-(4-methyl-4H-1,2,4-triazol-3-yl)piperidin-1-yl)benzonitrile] |
| < 100 nM | < 100 nM | < 100 nM | Cn1cnnc1C1CCN(c2c(-c3ccc(F)nc3)ccc(C3CC3)c2C#N)CC1 [Example 68, 6-cyclopropyl-3-(6-fluoropyridin-3-yl)-2-(4-(4-methyl-4H-1,2,4-triazol-3-yl)piperidin-1-yl)benzonitrile] |
| < 100 nM | < 100 nM | < 100 nM | Cn1cnnc1C1CCN(c2c(C#N)cc(Cl)cc2-c2ccc(F)nc2)CC1 [Example 69, 5-chloro-3-(6-fluoropyridin-3-yl)-2-(4-(4-methyl-4H-1,2,4-triazol-3-yl)piperidin-1-yl)benzonitrile] |
| < 100 nM | < 100 nM | < 100 nM | Cn1cnnc1C1CCN(c2c(C#N)cc(C(F)(F)F)cc2-c2ccc(F)nc2)CC1 [Example 70, 3-(6-fluoropyridin-3-yl)-2-(4-(4-methyl-4H-1,2,4-triazol-3-yl)piperidin-1-yl)-5-(trifluoromethyl)benzonitrile] |
| < 100 nM | < 100 nM | < 100 nM | Cn1cnnc1C1CCN(c2c(-c3ccc(F)nc3)ccc(F)c2C#N)CC1 [Example 71, 6-fluoro-3-(6-fluoropyridin-3-yl)-2-(4-(4-methyl-4H-1,2,4-triazol-3-yl)piperidin-1-yl)benzonitrile] |
| < 100 nM | < 100 nM | < 100 nM | Cn1cnnc1C1CCN(c2c(-c3ccc(F)nc3)ccc(-c3cn[nH]c3)c2C#N)CC1 [Example 73, 3-(6-fluoropyridin-3-yl)-2-(4-(4-methyl-4H-1,2,4-triazol-3-yl)piperidin-1-yl)-6-(1H-pyrazol-4-yl)benzonitrile] |
| < 100 nM | < 100 nM | < 100 nM | Cn1cnnc1C1CCN(c2c(-c3ccc(F)nc3)ccc(OC3CC3)c2C#N)CC1 [Example 76, 6-cyclopropoxy-3-(6-fluoropyridin-3-yl)-2-(4-(4-methyl-4H-1,2,4-triazol-3-yl)piperidin-1-yl)benzonitrile] |
| < 100 nM | < 100 nM | < 100 nM | Cn1cnnc1C1CCN(c2c(-c3ccc(F)nc3)ccc(OCC3CC3)c2C#N)CC1 [Example 77, 6-(cyclopropylmethoxy)-3-(6-fluoropyridin-3-yl)-2-(4-(4-methyl-4H-1,2,4-triazol-3-yl)piperidin-1-yl)benzonitrile] |
| < 100 nM | < 100 nM | < 100 nM | Cn1cnnc1C1CCN(c2c(-c3ccc(F)nc3)ccc(N)c2C#N)CC1 [Example 78, 6-amino-3-(6-fluoropyridin-3-yl)-2-(4-(4-methyl-4H-1,2,4-triazol-3-yl)piperidin-1-yl)benzonitrile] |
| 100 to 1000 nM | < 100 nM | < 100 nM | CN(C)C(=O)c1ccc(-c2ccc(F)nc2)c(N2CCC(c3nncn3C)CC2)c1C#N [Example 79, 2-cyano-4-(6-fluoropyridin-3-yl)-N,N-dimethyl-3-(4-(4-methyl-4H-1,2,4-triazol-3-yl)piperidin-1-yl)benzamide] |
| < 100 nM | < 100 nM | < 100 nM | CN1CCN(c2ccc(-c3ccc(F)nc3)c(N3CCC(c4nncn4C)CC3)c2C#N)CC1 [Example 80, 3-(6-fluoropyridin-3-yl)-2-(4-(4-methyl-4H-1,2,4-triazol-3-yl)piperidin-1-yl)-6-(4-methylpiperazin-1-yl)benzonitrile] |
| < 100 nM | < 100 nM | < 100 nM | Cn1cnnc1C1CCN(c2c(-c3ccc(F)nc3)ccc(NC3CC3)c2C#N)CC1 [Example 81, 6-(cyclopropylamino)-3-(6-fluoropyridin-3-yl)-2-(4-(4-methyl-4H-1,2,4-triazol-3-yl)piperidin-1-yl)benzonitrile] |
| 1000 to 10000 nM | < 100 nM | < 100 nM | CNCCOc1ccc(-c2ccc(F)nc2)c(N2CCC(c3nncn3C)CC2)c1C#N [Example 82, 3-(6-fluoropyridin-3-yl)-2-(4-(4-methyl-4H-1,2,4-triazol-3-yl)piperidin-1-yl)-6-(2-(methylamino)ethoxy)benzonitrile] |
| 1000 to 10000 nM | < 100 nM | < 100 nM | CNCCN(C)c1ccc(-c2ccc(F)nc2)c(N2CCC(c3nncn3C)CC2)c1C#N [Example 83, 3-(6-fluoropyridin-3-yl)-6-(methyl(2-(methylamino)ethyl)amino)-2-(4-(4-methyl-4H-1,2,4-triazol-3-yl)piperidin-1-yl)benzonitrile] |
| > 10000 nM | < 100 nM | < 100 nM | Cn1cnnc1C1CCN(c2c(-c3ccc(F)nc3)ccc(NS(C)(=O)=O)c2C#N)CC1 [Example 84, N-(2-cyano-4-(6-fluoropyridin-3-yl)-3-(4-(4-methyl-4H-1,2,4-triazol-3-yl)piperidin-1-yl)phenyl)methanesulfonamide] |
| 1000 to 10000 nM | < 100 nM | < 100 nM | Cn1cnnc1C1CCN(c2c(-c3ccc(F)nc3)ccc(N3CCNCC3)c2C#N)CC1 [Example 85, 3-(6-fluoropyridin-3-yl)-2-(4-(4-methyl-4H-1,2,4-triazol-3-yl)piperidin-1-yl)-6-(piperazin-1-yl)benzonitrile] |
| < 100 nM | < 100 nM | < 100 nM | COCCOc1ccc(-c2ccc(F)nc2)c(N2CCC(c3nncn3C)CC2)c1C#N [Example 86, 3-(6-fluoropyridin-3-yl)-6-(2-methoxyethoxy)-2-(4-(4-methyl-4H-1,2,4-triazol-3-yl)piperidin-1-yl)benzonitrile] |
| < 100 nM | < 100 nM | < 100 nM | Cn1cnnc1C1CCN(c2c(-c3ccc(F)nc3)ccc(N3CCOCC3)c2C#N)CC1 [Example 87, 3-(6-fluoropyridin-3-yl)-2-(4-(4-methyl-4H-1,2,4-triazol-3-yl)piperidin-1-yl)-6-morpholinobenzonitrile] |
| 100 to 1000 nM | < 100 nM | < 100 nM | Cn1cnnc1C1CCN(c2c(-c3ccc(F)nc3)ccc(-c3c[nH]nc3N)c2C#N)CC1 [Example 92, 6-(3-amino-1H-pyrazol-4-yl)-3-(6-fluoropyridin-3-yl)-2-(4-(4-methyl-4H-1,2,4-triazol-3-yl)piperidin-1-yl)benzonitrile] |
| 100 to 1000 nM | < 100 nM | < 100 nM | Cn1cnnc1C1CCN(c2c(C#N)cccc2-c2cnc3nccn3c2)CC1 [Example 93, 3-(imidazo[1,2-a]pyrimidin-6-yl)-2-(4-(4-methyl-4H-1,2,4-triazol-3-yl)piperidin-1-yl)benzonitrile] |
| 1000 to 10000 nM | < 100 nM | < 100 nM | COc1ccc(-c2cnc3nccn3c2)c(N2CCC(c3nncn3C)CC2)c1C#N [Example 94, 3-(imidazo[1,2-a]pyrimidin-6-yl)-6-methoxy-2-(4-(4-methyl-4H-1,2,4-triazol-3-yl)piperidin-1-yl)benzonitrile] |
| < 100 nM | < 100 nM | < 100 nM | Cn1cnnc1C1CCN(c2c(-c3ccc(F)nc3)ccc(N3CC(O)C3)c2C#N)CC1 [Example 95, 3-(6-fluoropyridin-3-yl)-6-(3-hydroxyazetidin-1-yl)-2-(4-(4-methyl-4H-1,2,4-triazol-3-yl)piperidin-1-yl)benzonitrile] |
| 1000 to 10000 nM | < 100 nM | < 100 nM | Cn1cnnc1C1CCN(c2c(C#N)cccc2-c2ccc(F)cc2)CC1 [Example 96, 4′-fluoro-2-(4-(4-methyl-4H-1,2,4-triazol-3-yl)piperidin-1-yl)-[1,1′-biphenyl]-3-carbonitrile] |
| < 100 nM | < 100 nM | < 100 nM | CC(=O)c1ccc(-c2ccc(F)nc2)c(N2CCC(c3nncn3C)CC2)c1C#N [Example 97, 6-acetyl-3-(6-fluoropyridin-3-yl)-2-(4-(4-methyl-4H-1,2,4-triazol-3-yl)piperidin-1-yl)benzonitrile] |
| < 100 nM | < 100 nM | < 100 nM | Cn1cnnc1C1CCN(c2c(-c3ccc(F)nc3)ccc(-c3ccn(C4CC4)n3)c2C#N)CC1 [Example 98, 6-(1-cyclopropyl-1H-pyrazol-3-yl)-3-(6-fluoropyridin-3-yl)-2-(4-(4-methyl-4H-1,2,4-triazol-3-yl)piperidin-1-yl)benzonitrile] |
| < 100 nM | < 100 nM | < 100 nM | Cn1cnnc1C1CCN(c2c(C#N)cc(C#N)cc2-c2ccc(F)nc2)CC1 [Example 100, 5-(6-fluoropyridin-3-yl)-4-(4-(4-methyl-4H-1,2,4-triazol-3-yl)piperidin-1-yl)isophthalonitrile] |
| 1000 to 10000 nM | < 100 nM | < 100 nM | Cn1cnnc1C1CCN(c2c(C#N)cc(S(C)(=O)=O)cc2-c2ccc(F)nc2)CC1 [Example 101, 3-(6-fluoropyridin-3-yl)-2-(4-(4-methyl-4H-1,2,4-triazol-3-yl)piperidin-1-yl)-5-(methylsulfonyl)benzonitrile] |
| 100 to 1000 nM | < 100 nM | < 100 nM | Cn1cnnc1C1CCN(c2c(-c3ccc(F)nc3)cc3cn[nH]c3c2C#N)CC1 [Example 105, 5-(6-fluoropyridin-3-yl)-6-(4-(4-methyl-4H-1,2,4-triazol-3-yl)piperidin-1-yl)-1H-indazole-7-carbonitrile] |
